How the values were obtained:
[1] = Thermogravimetric analysis (TGA): transition of molecular precursor into material; format: physicochemical; details: for TGA transition ending (completed) temperature / TGA transition midpoint: transition of precursor into material; for TGA yield at 400° C.: at about 400° C.; for TGA yield for the transition: residue at end of transition
Protocol: Thermogravimetric analysis (TGA) was performed using a Q50 Thermogravimetric Analyzer (TA Instruments, New Castle, Del.). NMR data were recorded using a Varian 400 MHz spectrometer.

[2] = Solubility of molecular precursor in organic solvents; format: physicochemical; details: for Solubility: benzene: solvent benzene; for Solubility: benzene / Solubility: toluene: 'heat'; for Solubility: diethyl ether: solvent diethyl ether; for Solubility: pentane: solvent pentane; for Solubility: CHCl3: solvent CHCl3; for Solubility: THF: solvent THF; for Solubility: toluene: solvent toluene

Row | TGA transition ending (completed) temperature [1] | TGA yield at 400° C. [1] | TGA yield for the transition [1] | TGA transition midpoint [1] [°C] | Solubility: benzene [2] | Solubility: diethyl ether [2] | Solubility: pentane [2] | Solubility: CHCl3 [2] | Solubility: THF [2] | Solubility: toluene [2] | Substance
1 | about 210 °C | 47.7 % (w/w) | 53.9 % (w/w) |  |  |  |  |  |  |  | Ag—(Se^tBu)3Ga^nBu [Example 25]
2 | about 195 °C | 45.1 % (w/w) | 50.4 % (w/w) |  |  |  |  |  |  |  | Ag—(Se^tBu)3Ga^sBu [Example 27]
3 | about 205 °C |  | 56.2 % (w/w) |  |  |  |  |  |  |  | Ag—(Se^tBu)3In^iPr [Example 28]
4 | about 205 °C | 52.5 % (w/w) | 54.6 % (w/w) |  |  |  |  |  |  |  | Ag—(Se^tBu)3In^nBu [Example 24]
5 | about 195 °C |  | 54.9 % (w/w) |  |  |  |  |  |  |  | Ag—(Se^tBu)3In^sBu [Example 26]

More lines, now with the values behind:

Row | Substance | TGA transition ending (completed) temperature [1] | TGA yield at 400° C. [1] | TGA yield for the transition [1] | TGA transition midpoint [1] [°C] | Solubility: benzene [2] | Solubility: diethyl ether [2] | Solubility: pentane [2] | Solubility: CHCl3 [2] | Solubility: THF [2] | Solubility: toluene [2]
6 | Cu—(S^tBu)2(S^tBu)In^tBu [Example 9] | 295 °C |  | 47.9 % (w/w) | 235 |  |  |  |  |  | 
7 | Cu—(S^tBu)3Ga^iPr [Example 12] | 220 °C |  | 46.0 % (w/w) |  |  |  |  |  |  | 
8 | Cu—(S^tBu)3In^iPr [Example 1] | 227 °C |  | 50.4 % (w/w) | 220 | s heat | ss | nil |  |  | 
9 | Cu—(S^tBu)3In^nBu [Example 2] | 248 °C |  | 50.4 % (w/w) | 235 | vs | vs |  | vs | vs | vs
10 | Cu—(S^tBu)3In^tBu [Example 4] | about 240 °C |  | 48.1 % (w/w) |  | ss heat | nil | nil |  | ss | s heat
11 | Cu—(Se^tBu)3Ga^tBu [Example 5] | about 210 °C |  | 48.3 % (w/w) |  | ss heat | nil | nil |  |  | s heat
12 | Cu—(Se^tBu)3In^iPr [Example 8] | 199 °C |  | 52.1 % (w/w) | 192 | heat | ss | nil |  |  | 
13 | Cu—(Se^tBu)3In^nBu [Example 3] | 196 °C |  | 48.5 % (w/w) | 174 | vs | vs |  | vs | vs | vs
14 | Cu—(Se^tBu)3In^sBu [Example 14] | 204 °C |  | 52.3 % (w/w) | 191 |  |  |  |  |  | 
15 | Cu—(Se^tBu)3In^tBu [Example 7] | about 192 °C |  | 53.1 % (w/w) |  | ss heat | nil | nil |  | ss | heat
